The test system of series [1] is TICs. Put plainly: ROS levels and spheroid formation of TICs. It is filed as cell-based. As for the experimental part: To evaluate the status of mitochondria in TICs, the MitoTracker® Mitochondrion-selective probes for total mitochondrial mass (MitoTracker® Deep Red FM Invitrogen: M22426) and for oxidized state mitochondria (MitoSOX™ Red mitochondrial superoxide indicator) were added to the media, respectively, and cells subjected to FACS analyses. ROS labeling was performed as per the instructions for CellROX® Oxidative stress reagent Probes (CellROX® green reagent, Invitrogen C10444). In brief, the cells were incubated with staining solution (100 nM) in culture media at 37° C. for 30 minutes. After staining was complete, cells were washed with PBS and analyzed by fluorescent microscopy or flow cytometry.

The subject of series [2] is TICs. Put plainly: Cytochrome c release, immunoblot of cytosol and heavy membrane fractions. The format is cell-based. A general note: In western blotting, separated proteins are transferred to a membrane and probed.
The test system of a further series is hepatocytes. Described as above. The format is cell-based. Conditions: within 1-3 hours post treatment.
In a further series the test system is mouse TICs. Put plainly: TIC xenograft in NOG mice, sorafenib resistance. Conditions: mouse TICs subcutaneously in NOG mice. The format is in vivo.
The test system of series [3] is TICs. Conditions: cited from earlier work.
Series [4] concerns TICs. Put plainly: Seahorse extracellular flux analysis (OCR, ECAR). The format is cell-based. To be noted: for FCCP-induced OCR: Nanog silenced TICs, ETO 100 μM. The protocol:
To measure cellular bioenergetics using extracellular flux, a Seahorse […] Extracellular Flux Analyzer was used following the published protocol (Ahfeldt et al., 2012; Ferrick et al., 2008). […] Cells were plated in gelatin-coated XF 24-well cell culture microplates at 2-7.5×10^4 cells/well (Seahorse Bioscience) and incubated in pre-warmed unbuffered DMEM medium (DMEM containing 2 mM GlutaMAX, 1 mM sodium pyruvate, 1.85 g l^−1 NaCl and 25 mM glucose) for 1 h. The oxygen consumption was measured by the XF24 extracellular flux analyzer (Seahorse Biosciences) in unbuffered DMEM assay medium supplemented with 1 mM pyruvate and 25 mM glucose after 45 to 60 min equilibration.
The characteristic function of mature hepatocytes is metabolism/thermogenesis, driven by the catabolic breakdown of lipids. To distinguish these tumor cells at a functional level, the oxygen consumption rate (OCR) and extracellular acidification rate (ECAR) were analyzed as previously described (Ahfeldt et al.). It was observed that the basal OCR and ECAR rates were highest in the Nanog-silenced TICs. Compounds were added that modulated mitochondrial function sequentially and measured the effect on OCR and ECAR after the addition of each compound. Oligomycin was first administered to determine ATP turnover and the degree of proton leakage. […] After the addition of the electron transport chain decoupler (FCCP), the maximal respiratory capacity was measured. […] Finally, antimycin was administered to inhibit the flux of electrons through complex III and prevent oxygen consumption by the cytochrome c oxidase in the mitochondria as previously described. For determination of individual ETC complex activities, mitochondrial biogenesis was profiled by adding perturbation drugs: 2 μM oligomycin, 0.5 μM FCCP and 5 μM antimycin A/rotenone, in succession. OCR for complexes II-IV was measured by first inhibiting complex I with rotenone; OCR for complexes III-IV was measured by first inhibiting complex II with […]; and OCR for complex IV was measured by first inhibiting complex III with antimycin. The Etomoxir (ETO, 100 μM)-sensitive component of oxygen consumption rate (OCR) represents FAO. Absolute values of OCR were expressed as pmol min^−1 per 10^6 cells and mpH min^−1 per 10^6 cells. OCR and ECAR were determined by plotting the oxygen tension and acidification of the medium in the chamber as a function of time and normalized to protein concentration (picomoles per minute per milligram), respectively. […]
The ECAR was measured over time at 10 min intervals. […] By uncoupling the proton gradient with FCCP, the maximum OCR rates were determined over the next two time intervals (II). By addition of glycolysis inhibitor (2-DG) or CPT1 inhibitor (ETO), the OCR rates were determined over the next two time intervals (III). […]

Series [5] relates to TICs. Put plainly: ATP production measurements. The format is cell-based. Conditions: inhibitors for 4 hr. As for the experimental part:
Relative ATP/cell assays were performed in 96-well plates. After cells were treated with inhibitors for 4 hr, culture media was removed. Cell Titer-Glo (100 μl: Promega) and CyQUANT (Invitrogen) were immediately added to each well. Luminescence and fluorescence readings were consecutively measured after room-temperature incubation for 10 min.

A further series deals with CD133 (+) Huh7 cells. Put plainly: CD133 cell viability screening (luminescence, CellTiter-Glo). The format is cell-based. To be noted: Homo sapiens, Huh-7. The protocol:
(§1) CD133(+) and CD133(−) Huh7 cells were freshly sorted using the MACS CD133 micro bead kit (Miltenyi Biotec, 130-050-801) and were seeded in 100 μl medium containing 5000 cells per well in a 96-well plate. Once the cells attached, the FDA approved drug library was added to each well to a final concentration of 20 μg/ml in duplicate. After incubation for 48 hours, the cell viability was determined by a luminescence assay. […] After 16 hours, 1 μl of a […] drug solution was individually added to the 96 wells, resulting in a 20 μg/ml final concentration for most compounds. After 48 hours, CellTiter-Glo® Reagent (G8233, Promega) was added and the luminescence signal was measured with an automated plate reader. The raw data for each well was background-corrected by DMSO control wells on the same plate.
Freshly sorted CD133 (+) Huh7 or mouse TICs were plated in 100 μl of medium containing 5000 cells per well in a 96-well plate. After 16 hours, 0.5 μl of a 2 μg/ml, 1 μg/ml, 0.2 μg/ml, 0.1 μg/ml, 0.02 μg/ml, or 0.01 μg/ml compound was added to each well in triplicate, resulting in a 10 μg/ml, 5 μg/ml, 1 μg/ml, 0.5 μg/ml, 0.1 μg/ml, and 0.05 μg/ml final concentration for most compounds, respectively. After 48 hours, the cells were either measured for cell viability by Cell-Glo® Reagent (Promega), or fixed with 1% PFA (paraformaldehyde) and stained with DAPI for high-throughput screening.
For orientation: ATP-based viability assays read luminescence as a measure of living cells.

Test in series [6]: as above
The format is cell-based. Conditions: human, CD133 (−) Huh7 cells (freshly MACS-sorted). The protocol: as §1

The test system of series [7] is TICs. Put plainly: Stable-isotope glutaminolysis analysis. The format is cell-based. The protocol:
To test the glutamine utilization, TICs were incubated in 1 mM of [U-^13C5, 2,5-^15N2]-glutamine (Cambridge Isotope Laboratory, Cat # CNLM-1275-H-PK) for 4 hr. When [U-^13C5, 2,5-^15N2]-glutamine is taken up by cells, it loses the ^15N on the 5th carbon and is converted to [U-^13C5, 2-^15N]-glutamate, which loses the ^15N on the 2nd carbon and becomes [U-^13C5]-glutamate after rapid equilibration with TCA cycle intermediate α-ketoglutarate. When glutamine and glutamate were analyzed by gas chromatography mass spectrometry (GC-MS) using electronic impact ionization (EI), their TFA derivatives gave rise to C2-C4 (m/z 152) and C2-C5 (m/z 198) fragments. Thus, the [U-^13C5, 2-^15N]-glutamate has a C2-C4 fragment of m/z 156 (M4; contains 3×^13C and a ^15N) and a C2-C5 fragment of […] (M5; contains 4×^13C and a ^15N), which represent the relative abundance of glutamine taken up by the TICs. On the other hand, [U-^13C5]-glutamate has a C2-C4 fragment of m/z 155 (M3; contains 3×^13C) and a C2-C5 fragment of […] (M4; contains 4×^13C). When the [U-^13C5]-glutamate enters TCA cycle metabolism, it will gradually lose the ^13C carbon after each cycle and generate M2, M1, and M0 C2-C4 fragment and M3, M2, M1, and M0 C2-C5 fragment, which represent the TCA cycle activity. […]

SMILES strings stand for the structures. Several values for one entry are separate records, joined by “and”; a condition that tells them apart may be missing. Equal entries are not always repeated.

For orientation: viability means the share of living cells, or the viability signal relative to a control. Low values mean more harm to the cells, high ones less harm to the cells. The term IC50 denotes the concentration that gives 50% inhibition.

As to `C[n+]1ccc(-c2cc[n+](C)cc2)cc1` [Paraquat], in the series on TICs [1], the ROS production entry is recorded as “increased ROS production” and the “tumor spheroid formation of TICs” value was “significantly reduced”.

As for `CNC(=O)c1cc(Oc2ccc(NC(=O)Nc3ccc(Cl)c(C(F)(F)F)c3)cc2)ccn1` [sorafenib], the “cytochrome c localisation following sorafenib treatment” value is on record as “remained mostly in the heavy membrane (HM) fraction” in the series with TICs [2] (TICs) and “translocated from mitochondria into the soluble fraction” in the series on hepatocytes. Besides, in the series with mouse TICs, the “xenograft tumor growth / sorafenib resistance” value is “very resistant”. The tumor size reduction in the series on TICs [3] (sorafenib combined with knockdown of YAP1 (Chen et al., 2013)) is roughly 55%. Also, in the series with TICs [3] (sorafenib with antagonism of NANOG in TICs, tumor-bearing mice (Huynh et al., 2009)), the “suppression of tumor growth” value is reported as roughly 90%.

As for `CCOC(=O)[C@@]1(CCCCCCOc2ccc(Cl)cc2)CO1` [ETO, Etomoxir], the “FCCP-induced OCR” value in the series on TICs [4] is given as “antagonized”. The ECAR result in the series on TICs [4] (sh-Nanog-TICs) is given as “inhibits”; in the series on TICs [4] (sh-Scr-TICs) it was “does not affect”. Moreover, the ATP production result in the series with TICs [5] is recorded as “reduced ATP production”. Moreover, in the series with TICs [2] (in response to sorafenib treatment), the “cytochrome c release from mitochondria” value is “enhanced”. For the same compound, in the series on mouse TICs, the “xenograft tumor growth / sorafenib resistance” value is “sensitized TICs to sorafenib”.

`COc1cc(C)c(/C=C/C(C)=C/C=C/C(C)=C/C(=O)O)c(C)c1C` [acitretin] displayed a viability at 20 µg/mL with CD133 (+) Huh7 cells (20 μg/ml, 48 hours) of 12%. Besides, the IC50 in the series on CD133 (+) Huh7 cells (CD133 killing effect, FIG. 44A) was 7.37 µg/mL and 22.6 µM. In addition, in series [6], the viability at 48 h, 20 μg/ml was determined as 70.4%.

In the case of `C=CC(N)CCC(=O)O` (stereo not shown) [vigabatrin], the “percentage of labeled succinate” value with TICs [7] was “does not reduce”.

As for `O=CC[C@@H](O)[C@H](O)[C@H](O)CO` [2-DG, 2-deoxyglucose], the “FCCP-induced OCR” value in the series on TICs [4] is reported as “not”. The ATP production entry with TICs [5] was “did not significantly lower ATP production”.

Values taken from patent publication US20160304970A1, “GENE BIOMARKER TO DIAGNOSE METASTIC LIVER CANCER AND METHODS FOR TARGETING THE SAME” (University of Southern California, priority 2015, published 2016).
